Measured values reported in patent US7842703B2, “Substituted benzofused derivatives and their use as vanilloid receptor ligands” (Glenmark Pharmaceuticals S.A., priority 2005, dated 2010).
pIC50: −log10 of the molar value.

Columns and labels:
[1] = target: T1, Human TRPV1 expressing CHO cells (Homo sapiens, UniProt Q8NER1); assay: Screening for TRPV1 antagonist using the 45Calcium uptake assay (inhibition of capsaicin induced cellular uptake of radioactive calcium); format: cell-based; conditions: for inhibition at 1 µM: CHO; for inhibition at 1 µM / % inhibition of ^45Ca uptake at 1 μM: test compound 1 μM, capsaicin 250 nM, relative to maximum ^45Ca uptake induced by capsaicin alone; for pIC50: inhibition of capsaicin (250 nM) induced ^45Ca uptake
T1 construct: expressed in transfected cells; host or cells: CHO cells under G-418 selection
T1 sequence (Q8NER1 whole entry): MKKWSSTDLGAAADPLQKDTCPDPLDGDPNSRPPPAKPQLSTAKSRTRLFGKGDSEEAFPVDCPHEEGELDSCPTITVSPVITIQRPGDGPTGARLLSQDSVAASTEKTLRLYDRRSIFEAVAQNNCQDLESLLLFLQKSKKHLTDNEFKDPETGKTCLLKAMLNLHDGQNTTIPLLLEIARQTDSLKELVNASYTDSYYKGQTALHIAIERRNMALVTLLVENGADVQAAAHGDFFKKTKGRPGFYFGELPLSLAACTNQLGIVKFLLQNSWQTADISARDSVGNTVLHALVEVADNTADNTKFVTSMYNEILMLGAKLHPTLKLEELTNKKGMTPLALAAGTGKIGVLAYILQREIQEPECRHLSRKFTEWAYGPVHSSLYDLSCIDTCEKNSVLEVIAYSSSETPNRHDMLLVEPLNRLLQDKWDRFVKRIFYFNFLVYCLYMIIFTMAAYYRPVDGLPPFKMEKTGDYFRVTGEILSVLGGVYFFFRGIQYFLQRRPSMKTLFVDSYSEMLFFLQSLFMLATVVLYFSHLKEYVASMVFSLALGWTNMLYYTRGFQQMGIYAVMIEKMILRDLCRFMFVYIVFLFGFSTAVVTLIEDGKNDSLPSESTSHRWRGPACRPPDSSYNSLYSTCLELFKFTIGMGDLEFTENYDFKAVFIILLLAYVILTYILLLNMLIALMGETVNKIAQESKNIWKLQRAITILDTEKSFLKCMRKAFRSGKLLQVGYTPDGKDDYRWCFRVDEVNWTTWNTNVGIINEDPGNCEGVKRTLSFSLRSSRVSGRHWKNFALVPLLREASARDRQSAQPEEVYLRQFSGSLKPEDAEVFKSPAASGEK

Compound | melting point [°C] | inhibition at 1 µM [1] [%] | pIC50 [1] | % inhibition of ^45Ca uptake at 1 μM [1] [%]
Cc1ccc2nc(NC(=O)NC3CC4(CCC4)Oc4ccccc43)sc2c1 (racemic) [Example 18, (±) 1-(3,4-Dihydro-spiro[2H-1-benzopyran-2,1′-cyclobutane]-4-yl)-3-(6-methyl-1,3-benzothiazol-2-yl)urea] |  | < 50 |  | 
O=C(Nc1cccc2cnccc12)NC1CC2(CCC2)Oc2cc(O)ccc21 (racemic) [Example 46, (±) 1-(3,4-Dihydro-7-hydroxy-spiro[2H-1-benzopyran-2,1′-cyclobutane]-4-yl)-3-(isoquinolin-5-yl)urea] |  | < 50 |  | 
O=C(Nc1cccc2cnccc12)NC1CC2(CCC2)Oc2ccc(F)cc21 (single isomer, unassigned; (-)) [Example 44, (−) 1-(3,4-Dihydro-6-fluorospiro[2H-1-benzopyran-2,1′-cyclobutane]-4-yl)-3-(isoquinolin-5-yl)urea] |  | < 50 |  | 
CC(=O)n1ncc2cc(NC(=O)NC3CC4(CCC4)Oc4ccccc43)ccc21 (racemic) [Example 19, (±) 1-(3,4-Dihydro-spiro[2H-1-benzopyran-2,1′-cyclobutane]-4-yl)-3-(1-acetyl-1H-indazol-5-yl)urea] |  | < 50 |  | 
O=C(Nc1nnc(-c2ccc(Br)cc2)s1)NC1CC2(CCC2)Oc2ccccc21 (racemic) [Example 21, (±) 1-(3,4-Dihydro-spiro[2H-1-benzopyran-2,1′-cyclobutane]-4-yl)-3-([5-(4-bromophenyl)-1,3,4-thiadiazol-2-yl]-)urea] |  |  |  | <50
O=C(Nc1cccc2c[n+]([O-])ccc12)NC1CC2(CCC2)Oc2ccccc21 (racemic) [Example 9, (±) 1-(3,4-Dihydro-spiro[2H-1-benzopyran-2,1′-cyclobutane]-4-yl)-3-(2-oxoisoquinolin-5-yl)urea] |  | > 50 | 6.99 | 

Next, values leading:

melting point [°C] | inhibition at 1 µM [1] [%] | pIC50 [1] | % inhibition of ^45Ca uptake at 1 μM [1] [%] | Compound
246 to 247 | > 50 | 6.11 |  | O=C(Nc1cccc2cnccc12)NC1CC2(CCC2)Oc2c(O)cccc21 (racemic) [Example 61, (±) 1-(3,4-Dihydro-8-hydroxy-spiro[2H-1-benzopyran-2,1′-cyclobutane]-4-yl)-3-(isoquinolin-5-yl)urea]
187 to 188 | > 50 | 7.31 |  | S=C(Nc1cccc2cnccc12)NC1CC2(CCC2)Oc2ccccc21 (centres unmarked) [Example 80, N′-isoquinolin-5-yl-N-3,3′,4,4′-tetrahydro-2′H-spiro[chromene-2,1′-cyclobutan]-4-ylthiourea(N′-isoquinolin-5-yl-N-3,4-dihydro-2H-spiro[chromene-2,1′-cyclobutan]-4-ylthiourea)]
 |  |  | <50 | O=C(Nc1cccc2cnccc12)NC1CC2(CCC2)Oc2c(F)cc(F)cc21 (single isomer, unassigned; (-)) [Example 60, (−) 1-(6,8-Difluoro-3,4-Dihydro-spiro[2H-1-benzopyran-2,1′-cyclobutane]-4-yl)-3-(isoquinolin-5-yl)urea]
 | > 50 | 6.04 |  | Cc1nccc2c(NC(=O)NC3CC4(CCC4)Oc4ccc(Cl)cc43)cccc12 (racemic) [Example 74, (±) 1-(6-Chloro-3,4-dihydro-spiro[2H-1-benzopyran-2,1′-cyclobutane]-4-yl-3-(1-methylisoquinolin-5-yl)urea]
 | > 50 | 6.33 |  | O=C(Nc1cccc2cnccc12)NC1CC2(CCC2)Oc2ccc([N+](=O)[O-])cc21 (racemic) [Example 77, (±) 1-(3,4-Dihydro-6-nitro-spiro[2H-1-benzopyran-2,1′-cyclobutane]-4-yl)-3-(isoquinolin-5-yl)urea]
 | > 50 | 6.51 |  | O=C(Nc1cccc2cnccc12)NC1CC2(CCC2)Oc2ccc(Cl)cc21 (racemic) [Example 63, (±) 1-(6-Chloro-3,4-dihydro-spiro[2H-1-benzopyran-2,1′-cyclobutane]-4-yl)-3-(isoquinolin-5-yl)urea]
 | > 50 | 7.80 |  | O=C(Nc1cccc2cnccc12)NC1CC2(CCC2)Oc2cc(OC3CCCC3)ccc21 (racemic) [Example 53, (±) 1-(7-Cyclopentyloxy-3,4-dihydro-spiro[2H-1-benzopyran-2,1′-cyclobutane]-4-yl)-3-(isoquinolin-5-yl)urea]
 | > 50 | 6.35 |  | Cc1cc2c(cc1Br)C(NC(=O)Nc1cccc3cnccc13)CC1(CCC1)O2 (racemic) [Example 67, (±) 1-(6-Bromo-3,4-dihydro-7-methylspiro[2H-1-benzopyran-2,1′-cyclobutane]-4-yl)-3-(isoquinolin-5-yl)urea]
 | > 50 | 7.84 |  | Cc1cc2c(NC(=O)NC3CC4(CCC4)Oc4cc(OC(F)F)ccc43)cccc2cn1 (racemic) [Example 56, (±) 1-(7-Difluoromethoxy-3,4-dihydro-spiro[2H-1-benzopyran-2,1′-cyclobutane]-4-yl)-3-(3-methylisoquinolin-5-yl)urea]
